Columns and labels:
Assay in all cases: Post-emergence test, weed control effect
Assay type in all cases: in vivo
Conditions in all cases: after 3 weeks
[1] = tested on: Veronica polita
How it was run: (§1)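 Weeds sown in soil-filled pots and sprayed at 2-3 leaf stage (2-3 weeks after sowing) with compound in acetone/Tween-80/water plus 80% vegetable oil methyl ester synergist at 1500 g/ha. After 3 weeks in the greenhouse, fresh-weight growth inhibition scored on a 0-10 scale (10 = completely dead).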

[2] = tested on: Amaranthus retroflexus
How it was run: as §1

[3] = tested on: Chenopodiaceae
How it was run: as §1

[4] = tested on: Rorippa indica
How it was run: as §1

Oc1cc(C(F)(F)F)nnc1-c1cc(F)c(F)c(F)c1 [Compound 53]
10: weed control effect (activity level), Veronica polita ([1]; dose 1000 g/ha) | weed control effect (activity level), Amaranthus retroflexus ([2]; dose 1000 g/ha) | weed control effect (activity level), Chenopodiaceae ([3]; dose 1000 g/ha) | weed control effect (activity level), Rorippa indica ([4]; dose 1000 g/ha)

CC(=O)n1nccc1-c1nnc(C(F)(F)F)cc1O [Compound 834]
10: weed control effect (activity level), Veronica polita ([1]; Dose 3000 g/ha) | weed control effect (activity level), Amaranthus retroflexus ([2]; Dose 3000 g/ha) | weed control effect (activity level), Chenopodiaceae ([3]; Dose 3000 g/ha) | weed control effect (activity level), Rorippa indica ([4]; Dose 3000 g/ha)

O=C(COCc1ccccc1)Oc1cc(C(F)(F)F)nnc1-c1ccc(F)c(F)c1 [Compound 1-100]
10: weed control effect, Veronica polita (activity level) ([1]; Dose 3000 g/ha) | weed control effect, Amaranthus retroflexus (activity level) ([2]; Dose 3000 g/ha) | weed control effect, Chenopodiaceae (activity level) ([3]; Dose 3000 g/ha) | weed control effect, Rorippa indica (activity level) ([4]; Dose 3000 g/ha)

O=Cc1ccc(F)cc1-c1nnc(C(F)(F)F)cc1O [Compound 67]
10: weed control effect (activity level), Veronica polita ([1]; dose 1000 g/ha) | weed control effect (activity level), Amaranthus retroflexus ([2]; dose 1000 g/ha) | weed control effect (activity level), Chenopodiaceae ([3]; dose 1000 g/ha) | weed control effect (activity level), Rorippa indica ([4]; dose 1000 g/ha)

Cc1ccc(-c2nnc(C(F)(F)F)cc2O)c(F)c1 [Compound 59]
10: weed control effect (activity level), Veronica polita ([1]; dose 1000 g/ha) | weed control effect (activity level), Amaranthus retroflexus ([2]; dose 1000 g/ha) | weed control effect (activity level), Chenopodiaceae ([3]; dose 1000 g/ha) | weed control effect (activity level), Rorippa indica ([4]; dose 1000 g/ha)

O=S(=O)(Oc1cc(C(F)(F)F)nnc1-c1ccc(C(F)(F)F)cc1)c1ccc2oncc2c1 [Compound 1-148]
10: weed control effect, Veronica polita (activity level) ([1]; Dose 3000 g/ha) | weed control effect, Amaranthus retroflexus (activity level) ([2]; Dose 3000 g/ha) | weed control effect, Chenopodiaceae (activity level) ([3]; Dose 3000 g/ha) | weed control effect, Rorippa indica (activity level) ([4]; Dose 3000 g/ha)

N#Cc1ncccc1-c1nnc(C(F)(F)F)cc1O [Compound 979]
10: weed control effect (activity level), Veronica polita ([1]; Dose 3000 g/ha) | weed control effect (activity level), Amaranthus retroflexus ([2]; Dose 3000 g/ha) | weed control effect (activity level), Chenopodiaceae ([3]; Dose 3000 g/ha) | weed control effect (activity level), Rorippa indica ([4]; Dose 3000 g/ha)

Cc1cncc(-c2nnc(C(F)(F)F)cc2O)c1 [Compound 211]
10: weed control effect (activity level), Veronica polita ([1]; dose 2000 g/ha) | weed control effect (activity level), Amaranthus retroflexus ([2]; dose 2000 g/ha) | weed control effect (activity level), Chenopodiaceae ([3]; dose 2000 g/ha) | weed control effect (activity level), Rorippa indica ([4]; dose 2000 g/ha)

CC(C)=NOc1cc(C(F)(F)F)nnc1-c1ccc(F)c(F)c1 [Compound 1-169]
10: weed control effect, Veronica polita (activity level) ([1]; Dose 3000 g/ha) | weed control effect, Amaranthus retroflexus (activity level) ([2]; Dose 3000 g/ha) | weed control effect, Chenopodiaceae (activity level) ([3]; Dose 3000 g/ha) | weed control effect, Rorippa indica (activity level) ([4]; Dose 3000 g/ha)

Cn1nc(OCc2ccccc2)cc1-c1nnc(C(F)(F)F)cc1O [Compound 784]
10: weed control effect (activity level), Veronica polita ([1]; Dose 3000 g/ha) | weed control effect (activity level), Amaranthus retroflexus ([2]; Dose 3000 g/ha) | weed control effect (activity level), Chenopodiaceae ([3]; Dose 3000 g/ha) | weed control effect (activity level), Rorippa indica ([4]; Dose 3000 g/ha)

Cc1cc(Cl)ccc1-c1nnc(C(F)(F)F)cc1O [Compound 71]
10: weed control effect (activity level), Veronica polita ([1]; dose 1000 g/ha) | weed control effect (activity level), Amaranthus retroflexus ([2]; dose 1000 g/ha) | weed control effect (activity level), Chenopodiaceae ([3]; dose 1000 g/ha) | weed control effect (activity level), Rorippa indica ([4]; dose 1000 g/ha)

Oc1cc(C(F)(F)F)nnc1-c1cnccc1C(F)(F)F [Compound 978]
10: weed control effect (activity level), Veronica polita ([1]; Dose 3000 g/ha) | weed control effect (activity level), Amaranthus retroflexus ([2]; Dose 3000 g/ha) | weed control effect (activity level), Chenopodiaceae ([3]; Dose 3000 g/ha) | weed control effect (activity level), Rorippa indica ([4]; Dose 3000 g/ha)

Oc1cc(C(F)(F)F)nnc1-c1ccc(Br)nc1 [Compound 966]
10: weed control effect (activity level), Veronica polita ([1]; Dose 3000 g/ha) | weed control effect (activity level), Amaranthus retroflexus ([2]; Dose 3000 g/ha) | weed control effect (activity level), Chenopodiaceae ([3]; Dose 3000 g/ha) | weed control effect (activity level), Rorippa indica ([4]; Dose 3000 g/ha)

O=C(CCCBr)Oc1cc(C(F)(F)F)nnc1-c1ccc(F)c(F)c1 [Compound 1-23]
10: weed control effect, Veronica polita (activity level) ([1]; Dose 3000 g/ha) | weed control effect, Amaranthus retroflexus (activity level) ([2]; Dose 3000 g/ha) | weed control effect, Chenopodiaceae (activity level) ([3]; Dose 3000 g/ha) | weed control effect, Rorippa indica (activity level) ([4]; Dose 3000 g/ha)

Oc1cc(C(F)(F)F)nnc1-c1cccc(F)c1F [Compound 766]
10: weed control effect (activity level), Veronica polita ([1]; Dose 3000 g/ha) | weed control effect (activity level), Amaranthus retroflexus ([2]; Dose 3000 g/ha) | weed control effect (activity level), Chenopodiaceae ([3]; Dose 3000 g/ha) | weed control effect (activity level), Rorippa indica ([4]; Dose 3000 g/ha)

Cc1ccc(-c2nnc(C(F)(F)F)cc2O)cn1 [Compound 974]
10: weed control effect (activity level), Veronica polita ([1]; Dose 3000 g/ha) | weed control effect (activity level), Amaranthus retroflexus ([2]; Dose 3000 g/ha) | weed control effect (activity level), Chenopodiaceae ([3]; Dose 3000 g/ha) | weed control effect (activity level), Rorippa indica ([4]; Dose 3000 g/ha)

Oc1cc(C(F)(F)F)nnc1-c1c(F)c(F)c(F)c(F)c1F [Compound 55]
10: weed control effect (activity level), Veronica polita ([1]; dose 1000 g/ha) | weed control effect (activity level), Amaranthus retroflexus ([2]; dose 1000 g/ha) | weed control effect (activity level), Chenopodiaceae ([3]; dose 1000 g/ha) | weed control effect (activity level), Rorippa indica ([4]; dose 1000 g/ha)

CN1CCN(C(=O)Oc2cc(C(F)(F)F)nnc2-c2ccc(F)cc2)CC1 [Compound 1-64]
10: weed control effect, Veronica polita (activity level) ([1]; Dose 3000 g/ha) | weed control effect, Amaranthus retroflexus (activity level) ([2]; Dose 3000 g/ha) | weed control effect, Chenopodiaceae (activity level) ([3]; Dose 3000 g/ha) | weed control effect, Rorippa indica (activity level) ([4]; Dose 3000 g/ha)

O=C(Oc1cc(C(F)(F)F)nnc1-c1ccc(F)c(F)c1)c1cnccn1 [Compound 1-112]
10: weed control effect, Veronica polita (activity level) ([1]; Dose 3000 g/ha) | weed control effect, Amaranthus retroflexus (activity level) ([2]; Dose 3000 g/ha) | weed control effect, Chenopodiaceae (activity level) ([3]; Dose 3000 g/ha) | weed control effect, Rorippa indica (activity level) ([4]; Dose 3000 g/ha)

Oc1cc(C(F)(F)F)nnc1-c1ccc(OC(F)(F)F)cc1 [Compound 128]
10: weed control effect (activity level), Veronica polita ([1]; dose 1000 g/ha) | weed control effect (activity level), Amaranthus retroflexus ([2]; dose 1000 g/ha) | weed control effect (activity level), Chenopodiaceae ([3]; dose 1000 g/ha) | weed control effect (activity level), Rorippa indica ([4]; dose 1000 g/ha)

Oc1cc(C(F)(F)F)nnc1-c1ccccn1 [Compound 263]
10: weed control effect (activity level), Veronica polita ([1]; dose 2000 g/ha) | weed control effect (activity level), Amaranthus retroflexus ([2]; dose 2000 g/ha) | weed control effect (activity level), Chenopodiaceae ([3]; dose 2000 g/ha) | weed control effect (activity level), Rorippa indica ([4]; dose 2000 g/ha)

Cn1nc(C(F)F)cc1-c1nnc(C(F)(F)F)cc1O [Compound 794]
10: weed control effect (activity level), Veronica polita ([1]; Dose 3000 g/ha) | weed control effect (activity level), Amaranthus retroflexus ([2]; Dose 3000 g/ha) | weed control effect (activity level), Chenopodiaceae ([3]; Dose 3000 g/ha) | weed control effect (activity level), Rorippa indica ([4]; Dose 3000 g/ha)

Oc1cc(C(F)(F)F)nnc1-c1ccc(I)cc1 [Compound 33]
10: weed control effect (activity level), Veronica polita ([1]; dose 1000 g/ha) | weed control effect (activity level), Amaranthus retroflexus ([2]; dose 1000 g/ha) | weed control effect (activity level), Chenopodiaceae ([3]; dose 1000 g/ha) | weed control effect (activity level), Rorippa indica ([4]; dose 1000 g/ha)

Oc1cc(C(F)(F)F)nnc1-c1cccc(Cl)c1Cl [Compound 42]
10: weed control effect (activity level), Veronica polita ([1]; dose 1000 g/ha) | weed control effect (activity level), Amaranthus retroflexus ([2]; dose 1000 g/ha) | weed control effect (activity level), Chenopodiaceae ([3]; dose 1000 g/ha) | weed control effect (activity level), Rorippa indica ([4]; dose 1000 g/ha)

Cc1nc2cc(-c3nnc(C(F)(F)F)cc3O)ccc2o1 [Compound 597]
10: weed control effect (activity level), Veronica polita ([1]; Dose 3000 g/ha) | weed control effect (activity level), Amaranthus retroflexus ([2]; Dose 3000 g/ha) | weed control effect (activity level), Chenopodiaceae ([3]; Dose 3000 g/ha) | weed control effect (activity level), Rorippa indica ([4]; Dose 3000 g/ha)

O=C(Oc1cc(C(F)(F)F)nnc1-c1ccccc1)C1CCCCC1 [Compound 1-19]
10: weed control effect, Veronica polita (activity level) ([1]; Dose 3000 g/ha) | weed control effect, Amaranthus retroflexus (activity level) ([2]; Dose 3000 g/ha) | weed control effect, Chenopodiaceae (activity level) ([3]; Dose 3000 g/ha) | weed control effect, Rorippa indica (activity level) ([4]; Dose 3000 g/ha)

CCCCC(CCCC)=NOc1cc(C(F)(F)F)nnc1-c1cccc([N+](=O)[O-])c1 [Compound 1-178]
10: weed control effect, Veronica polita (activity level) ([1]; Dose 3000 g/ha) | weed control effect, Amaranthus retroflexus (activity level) ([2]; Dose 3000 g/ha) | weed control effect, Chenopodiaceae (activity level) ([3]; Dose 3000 g/ha) | weed control effect, Rorippa indica (activity level) ([4]; Dose 3000 g/ha)

From US12568972B2, “Pyridazinol compounds and derivatives, preparation methods, herbicidal compositions and applications thereof” (Qingdao Kingagroot Chemical Compound Co., Ltd., priority 2018, dated 2026)
